Experimental findings from US20160000782A1, “PHARMACEUTICAL COMPOSITION CONTAINING ANTIBACTERIAL AGENT” (priority 2013, published 2016) are described below.

The assay concerns Archaea (extreme halophile) infection causing dementia. In words: Treatment of patients with progressive dementia of unknown etiology (clinical course, MRI). The format is in vivo, human. Here is the method: The present inventors conducted studies by targeting 4 subjects with progressive dementia of unknown etiology at the Kagoshima University Medical and Dental Hospital. This study took place after the informed consent of the patients involved had been obtained. Also, this study was carried out with the approval of the ethical review committee of Kagoshima University.
Dementia was evaluated using the Revised Hasegawa Dementia Scale (HDS-R), which is […] that used for the mini-mental status examination (MMSE).

For `CO/N=C(\C(=O)N[C@@H]1C(=O)N2C(C(=O)O)=C(CSc3nc(=O)c(=O)[nH]n3C)CS[C@H]12)c1csc(N)n1` [ceftriaxone], the symptoms result (Patient 1, ceftriaxone and methylprednisolone administered together, 2 weeks after the initial administration) is given as “improved slightly”. Besides, the symptoms thereafter result (Patient 1, ceftriaxone and methylprednisolone administered together, later course, enlarged lesion in base of temporal lobe on brain MRI) is reported as “tended to progress”. For the same molecule, the improvement result (Patient 3, ceftriaxone 4 g/day intravenous for 2 weeks) is on record as “no improvement was observed”.
